Laboratory results from PubChem BioAssay AID330 (DTP/NCI, 2004).
Where “and” joins values, the source holds several entries; their conditions need not be identical. Identical values can stand only once. Inconclusive results and toxic doses are left out. Rule for the calls: active = survival T/C of 150% or more; inactive = T/C below 125% in these data.

Test system: P388 leukemia ip, CD2F1 mice, survival T/C
Assay: NCI In Vivo Anticancer Drug Screen. Data for tumor model P388 Leukemia (intraperitoneal) in CD2F1 (CDF1) mice
Settings: endpoint: median survival time, higher = longer survival
Outline: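 Mice carrying the transplanted tumor received test compound or vehicle. Survival was recorded in each group, and the value is the treated-group measurement divided by that of the vehicle-treated control group.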

[1] = dose: 25.0 mg/kg/injection, schedule: Q04DX003 (ip), vehicle: saline with Tween-80
[2] = dose: 50.0 mg/kg/injection, schedule: Q04DX003 (ip), vehicle: saline with Tween-80
[3] = dose: 60.0 mg/kg/injection, schedule: Q01DX005 (ip), vehicle: saline with Tween-80
[4] = dose: 120.0 mg/kg/injection, schedule: Q01DX005 (ip), vehicle: saline with Tween-80
[5] = dose: 12.5 mg/kg/injection, schedule: Q01DX005 (ip), vehicle: saline with Tween-80
[6] = dose: 25.0 mg/kg/injection, schedule: Q01DX005 (ip), vehicle: saline with Tween-80
[7] = dose: 50.0 mg/kg/injection, schedule: Q01DX005 (ip), vehicle: saline with Tween-80

Measured: T/C

CC(=O)OCC1OC(OC2=C(CC=C(C)C)C(=O)c3ccccc3C2=O)C(OC(C)=O)C(OC(C)=O)C1OC(C)=O (stereo not drawn)
inactive: [1] 100 % of control | [2] 102 % of control | dose: 100.0 mg/kg/injection, schedule: Q04DX003 (ip), vehicle: saline with Tween-80 94 % of control | dose: 200.0 mg/kg/injection, schedule: Q04DX003 (ip), vehicle: saline with Tween-80 114 % of control

O=C(Nc1cccc([N+](=O)[O-])c1)OCc1ccc2c(c1)OCO2
inactive: [3] 91 % of control | [4] 90 % of control

CC(=O)Nc1ccc(S(=O)(=O)Oc2noc3ccc(S(N)(=O)=O)cc23)cc1
inactive: dose: 100.0 mg/kg/injection, schedule: Q04DX002 (ip), vehicle: Klucel (hydroxypropylcellulose) (HPC) 102 % of control | dose: 200.0 mg/kg/injection, schedule: Q04DX002 (ip), vehicle: Klucel (hydroxypropylcellulose) (HPC) 107 % of control | dose: 400.0 mg/kg/injection, schedule: Q04DX002 (ip), vehicle: Klucel (hydroxypropylcellulose) (HPC) 109 % of control

NNc1ncnc2c1ncn2C1OC(CO)C(O)C1O (stereo not drawn)
inactive: dose: 19.8 mg/kg/injection, schedule: Q01DX009 (ip), vehicle: saline 120 % of control | dose: 50.0 mg/kg/injection, schedule: Q01DX009 (ip), vehicle: saline with Tween-80 120 % of control | dose: 66.0 mg/kg/injection, schedule: Q01DX009 (ip), vehicle: saline with Tween-80 112 % of control | dose: 100.0 mg/kg/injection, schedule: Q04DX003 (ip), vehicle: saline 118 % of control | dose: 200.0 mg/kg/injection, schedule: Q04DX003 (ip), vehicle: saline 86 % of control
active: dose: 30.0 mg/kg/injection, schedule: Q01DX009 (ip), vehicle: saline 150 % of control | dose: 45.0 mg/kg/injection, schedule: Q01DX009 (ip), vehicle: saline 160 % of control | dose: 100.0 mg/kg/injection, schedule: Q01DX009 (ip), vehicle: saline with Tween-80 163 % of control

CC1(C)N=C(N)N=C(N)N1c1ccc(OCCCNC(=O)Nc2cccc(S(=O)(=O)F)c2)c(Cl)c1
active: dose: 25.0 mg/kg/injection, schedule: Q01DX009 (ip), vehicle: saline 179 % of control | dose: 50.0 mg/kg/injection, schedule: Q01DX009 (ip), vehicle: saline 190 % of control | dose: 100.0 mg/kg/injection, schedule: Q01DX009 (ip), vehicle: saline 209 % of control

NS(=O)(=O)c1cc(S(=O)(=O)Cl)ccc1Cl
inactive: [5] 100 % of control | [6] 100 % of control | [7] 99 % of control and 94 % of control

C(#C[P+]1(c2ccccc2)C=C(c2ccccc2)OC(c2ccccc2)=C1)c1ccccc1
inactive: [5] 107 % of control | [6] 102 % of control | [7] 107 % of control

COC(=O)C1=C(C(=O)OC)P2(c3ccccc3)(c3ccccc3)N(c3ccccc3)C(=Nc3ccccc3)N2C1(c1ccccc1)c1ccccc1
inactive: dose: 50.0 mg/kg/injection, schedule: Q01DX005 (ip), vehicle: Klucel (hydroxypropylcellulose) (HPC) 94 % of control | dose: 100.0 mg/kg/injection, schedule: Q01DX005 (ip), vehicle: Klucel (hydroxypropylcellulose) (HPC) 102 % of control and 96 % of control | dose: 200.0 mg/kg/injection, schedule: Q01DX005 (ip), vehicle: Klucel (hydroxypropylcellulose) (HPC) 100 % of control and 89 % of control

O=C1/C(=C\c2ccccc2)C(NC2CCCCC2)c2ccccc21 (stereo not drawn)
inactive: dose: 3.12 mg/kg/injection, schedule: Q01DX005 (ip), vehicle: Klucel (hydroxypropylcellulose) (HPC) 109 % of control | dose: 6.25 mg/kg/injection, schedule: Q01DX005 (ip), vehicle: Klucel (hydroxypropylcellulose) (HPC) 100 % of control | dose: 12.5 mg/kg/injection, schedule: Q01DX005 (ip), vehicle: Klucel (hydroxypropylcellulose) (HPC) 107 % of control | dose: 25.0 mg/kg/injection, schedule: Q01DX005 (ip), vehicle: Klucel (hydroxypropylcellulose) (HPC) 107 % of control

O=C(C=C(C(F)(F)F)C(F)(F)F)c1ccco1
inactive: dose: 12.5 mg/kg/injection, schedule: Q04DX003 (ip), vehicle: saline with Tween-80 100 % of control | [1] 109 % of control | [2] 95 % of control

O=C(O)COc1nc(Cl)c(Cl)cc1Cl
inactive: dose: 60.0 mg/kg/injection, schedule: Q01DX005 (ip), vehicle: Klucel (hydroxypropylcellulose) (HPC) 101 % of control and 104 % of control | dose: 120.0 mg/kg/injection, schedule: Q01DX005 (ip), vehicle: Klucel (hydroxypropylcellulose) (HPC) 103 % of control | dose: 240.0 mg/kg/injection, schedule: Q01DX005 (ip), vehicle: Klucel (hydroxypropylcellulose) (HPC) 113 % of control and 94 % of control

CCC[n+]1noc(N)n1
inactive: dose: 3.13 mg/kg/injection, schedule: Q01DX009 (ip), vehicle: water 97 % of control | dose: 6.25 mg/kg/injection, schedule: Q01DX009 (ip), vehicle: water 99 % of control | dose: 12.5 mg/kg/injection, schedule: Q01DX009 (ip), vehicle: water 90 % of control | dose: 25.0 mg/kg/injection, schedule: Q01DX009 (ip), vehicle: water 97 % of control | dose: 50.0 mg/kg/injection, schedule: Q01DX009 (ip), vehicle: water 106 % of control | dose: 100.0 mg/kg/injection, schedule: Q01DX009 (ip), vehicle: water 106 % of control

COc1cc(C(c2c(O)c3ccccc3oc2=O)N2CCCC2)cc(OC)c1OC (stereo not drawn)
inactive: [3] 107 % of control | [4] 101 % of control | dose: 240.0 mg/kg/injection, schedule: Q01DX005 (ip), vehicle: saline with Tween-80 104 % of control
